Assay results as given in US8669289B2, “Methods and compositions relating to hematologic malignancies” (The Jackson Laboratory, priority 2009, dated 2014).
Entries after “also recorded” stand apart in the source; their conditions may differ.

What was measured:
[1] = tested on: K562 myeloid leukemia cells; assay: K562 cell proliferation, trypan blue live cell count; assay type: cell-based, human
Description: The cells are treated with curcumin at 5 different concentrations (20 μM; 40 μM; 60 μM; 80 μM; 100 μM) for 48, 72 and 96 hours. The cells are stained with trypan blue and counted. The total cell number of live cells is shown in the graph in FIG. 27. […] K562 is a human Bcr-Abl positive CML cell line, which was isolated from a CML patient in blast crisis (Koeffler, H. P., and Golde, D. W. 1980. Human myeloid leukemia cell lines: a review. […] This cell line is commonly used for screening compounds to detect anti-proliferative activities of leukemia cells and for the pharmacology and toxicology studies required for IND (Investigational New Drug) application. […] The cells are treated with zileuton at 7 different concentrations (10 μ[…]) for 48, and 72 hours. The cells are stained with trypan blue and counted. The total cell number of live cells following these treatments is shown in the graph in FIG. 28.

[2] = tested on: leukemia cells, LSCs, LT-LSC and ST-LSC+MPP; assay: In vitro culture of bone marrow cells of CML mice with curcumin, live cell numbers by FACS; assay type: cell-based; details: 20 μM, 6 days, vs buffer control
Description: Bone marrow cells are isolated from 6- to 10-week-old C57BL/6 (B6) mice induced with BCR-ABL, for example using the retroviral vector MSCV-IRES-eGFP carrying the p210 BCR-ABL cDNA to produce CML mice. Total bone marrow cells were cultured in vitro in the presence of StemSpan serum-free medium (StemCell Technologies, Vancouver, BC) supplemented with 10 μg/mL heparin (Sigma, St Louis, Mo.), 10 ng/mL mouse SCF, 20 ng/mL mouse TPO, 20 ng/mL mouse IGF-2 (all from R&D Systems, Minneapolis, Minn.), and 10 ng/mL human FGF-1 (Invitrogen, Carlsbad, Calif.). Half of the medium was replaced after 3 days with fresh medium. (Peng et al Blood, 15 Jul. 2007, Vol. 110, No. 2, pp. 678-685; Zhang and Lodish Blood, 1 Jun. 2005, Vol. 105, No. 11, pp. 4314-4320; de Haan et al. Dev Cell 2003; 4:241-251). The cells were cultured for 6 days in the presence or absence of the Alox5 inhibitor, curcumin at (1,7-Bis(4-hydroxy-3-methoxyphenyl)-1,6-heptadiene-3,5-dione; Calbiochem cat. no. 239802) a concentration of 20 μM in vitro (5×10^6 cells/6 cm tissue culture plate) at 37° C. in a 5% CO2 tissue culture incubator. […] Total live cell numbers were measured for leukemia cells, leukemia stem cells, long-term LSC (LT-LSC) and short-term LSCs with multipotent progenitor cells (ST-LSC+MPP). […]

Alox5 gene = assay: Gene expression in LSCs of CML mice with imatinib treatment (DNA microarray, RT-PCR); assay type: in vivo; details: imatinib 150 mg/kg every 4 hours, 5 doses from day 13 post BMT
Description: (§1) Leukemic stem cells in CML (CML-SCs) are insensitive to BCR-ABL kinase inhibitors (Graham et al., 2002). A bone marrow transplantation (BMT) mouse model of CML is used as an assay system, in which bone marrow cells from donor mice pretreated with 5-fluorouracil (5-FU) and transduced with BCR-ABL result in development of CML in recipient mice (Li et al., 1999). Bone marrow cells from C57BL/6 (B6) mice are transduced with retrovirus containing BCR-ABL/GFP or GFP alone under conditions for induction of CML, followed by transplantation of the transduced cells into B6 recipient mice.
Fourteen days after BMT, bone marrow cells are isolated and subsequently sorted by FACS for LSCs (GFP^+Lin^−c-Kit^+Sca-1^+) (Hu et al., 2006). Total RNA is isolated from these BCR-ABL-expressing LSCs or from the GFP^+Lin^−c-Kit^+Sca-1^+ cells that only express GFP, and DNA microarray analysis is carried out to compare gene expression between BCR-ABL-expressing and non-BCR-ABL expressing Lin^−c-Kit^+Sca-1^+ cells.

LSCs = assay: FACS of LT-LSCs and ST-LSCs/MPP cells in bone marrow of zileuton-treated CML mice; assay type: in vivo; details: 300 mg/kg twice a day from day 8; days 20 and 90 post BMT
Description: Cell populations affected by Alox5 deficiency are determined using FACS analysis. BCR-ABL-transduced Alox5^−/− bone marrow cells are transplanted into recipient mice (n=4) to induce CML, and bone marrow cells from these mice are analyzed by FACS for percentages of total HSCs (Lin^−c-Kit^+Sca-1^+), LT-HSCs (Lin^−c-Kit^+Sca-1^+CD34^−), and ST-HSCs/MPP cells (Lin^−c-Kit^+Sca-1^+CD34^+).
Recipients of BCR-ABL-transduced wild type bone marrow cells are treated with zileuton (300 mg/kg of body weight, twice a day) beginning at 8 days after BMT. […] At days 20 and 90 post BMT (induction of CML), FACS analysis is performed.

Alox5 = target: T1, Alox5 (Mus musculus, UniProt P48999); assay: Plasma level of LTB4 in CML mice; details: compared to placebo-treated CML mice
T1 sequence (P48999 1-674): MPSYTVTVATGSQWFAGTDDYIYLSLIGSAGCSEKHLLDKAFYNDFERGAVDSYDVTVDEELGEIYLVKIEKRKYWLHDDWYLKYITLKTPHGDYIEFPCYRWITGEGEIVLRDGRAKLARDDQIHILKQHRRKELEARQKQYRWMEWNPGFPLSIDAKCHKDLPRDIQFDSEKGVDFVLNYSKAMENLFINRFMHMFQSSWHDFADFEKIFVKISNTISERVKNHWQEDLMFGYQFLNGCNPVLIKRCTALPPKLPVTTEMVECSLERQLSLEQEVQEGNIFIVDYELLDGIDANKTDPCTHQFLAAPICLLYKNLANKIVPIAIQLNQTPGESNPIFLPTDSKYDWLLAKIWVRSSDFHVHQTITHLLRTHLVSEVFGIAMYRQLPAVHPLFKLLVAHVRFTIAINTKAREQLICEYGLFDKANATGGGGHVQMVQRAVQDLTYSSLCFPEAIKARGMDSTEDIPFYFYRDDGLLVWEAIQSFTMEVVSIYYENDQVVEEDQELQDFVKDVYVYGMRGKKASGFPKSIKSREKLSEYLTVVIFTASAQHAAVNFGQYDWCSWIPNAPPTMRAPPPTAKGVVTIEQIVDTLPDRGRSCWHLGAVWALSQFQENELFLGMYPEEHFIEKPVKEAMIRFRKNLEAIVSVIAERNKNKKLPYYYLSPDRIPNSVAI

[3] = tested on: mice with BCR-ABL-induced CML; assay: Leukemia cell infiltration to lungs and spleens of CML mice; assay type: in vivo; details: zileuton-treated CML mice
normal HSCs = assay: FACS of normal HSCs in zileuton-treated mice; assay type: in vivo
Description: Recipients of BCR-ABL-transduced wild type bone marrow cells are treated with zileuton (300 mg/kg of body weight, twice a day) beginning at 8 days after BMT. […] At days 20 and 90 post BMT (induction of CML), FACS analysis is performed. […] No suppression of normal HSCs is found in placebo- or zileuton-treated mice receiving wild type donor bone marrow cells transduced with MSCV-IRES-GFP retrovirus.

[4] = tested on: mice with CML induced by BCR-ABL-T315I; assay: Survival of mice with CML induced by BCR-ABL-T315I; assay type: in vivo; details: zileuton n=11 vs placebo n=6
white blood cells = assay: Peripheral white blood cell counts of CML mice; assay type: in vivo; details: 14 days after bone marrow transplantation
Description: (§2) Water is used as placebo.
The white blood cells are collected from the CML induced mice 14 days after bone marrow transplantation.

[5] = tested on: GFP+Gr-1+ myeloid leukemia cells; assay: FACS of GFP+Gr-1+ myeloid leukemia cells in peripheral blood and bone marrow of treated CML mice; assay type: in vivo
Description: as §1, §2

[6] = tested on: leukemia stem cells (CD34+CD38-); assay: Human CML CD34+CD38- cells in patient bone marrow culture, FACS; assay type: cell-based; details: 48 h, untreated 1.4%
Description: Bone marrow was isolated from a CML patient. The cells were cultured in serum-free media (SFM: Iscove modified Dulbecco medium (Sigma-Aldrich) supplemented with a serum substitute bovine serum albumin[…][…], BIT9500 from […] Technologies), five growth factors (5GF: cocktail of 20 ng/mL recombinant human IL-3 (rhIL-3), 20 ng/mL rhIL-6, 100 ng/mL rhFlt3-ligand, 100 ng/mL rh stem cell factor, available from […] Technologies)) and zileuton at two doses, 300 μM or 600 μM, for 48 hours. The cells were analyzed by FACS and the percentages of leukemia stem cells (CD34+CD38-) were determined using anti CD34 and anti CD38 antibodies.

SMILES: COc1cc(C=CC(=O)CC(=O)C=Cc2ccc(O)c(OC)c2)ccc1O [Curcumin, 1,7-Bis(4-hydroxy-3-methoxyphenyl)-1,6-heptadiene-3,5-dione]
- Number of live K562 cells ([1]; 20-100 μM, 72 or 96 hours): reduces the number of live cells in all groups
- Concentration at which an effect on live K562 cell number is shown ([1]; 48 hours): ≥ 40 µM
- Total live cell number of leukemia cells, LSCs, LT-LSC and ST-LSC+MPP [2]: reduced

SMILES: Cc1ccc(NC(=O)c2ccc(CN3CCN(C)CC3)cc2)cc1Nc1nccc(-c2cccnc2)n1 [Imatinib, 4-[(4-methylpiperazin-1-yl)methyl]-N-[4-methyl-3-[(4-pyridin-3-ylpyrimidin-2-yl)amino]-phenyl]-benzamide]
- Up-regulation of the Alox5 gene by BCR-ABL in LSCs (Alox5 gene): not abolished; also recorded: not prevented

SMILES: CC(c1cc2ccccc2s1)N(O)C(N)=O (stereo not shown) [Zileuton, N-[1-(1-benzothien-2-yl)ethyl]-N-hydroxyurea]
- Ratio of percentage of LT-LSCs to percentage of ST-LSCs/MPP cells (LSCs): increased with treatment
- Plasma level of LTB4 (Alox5): decreased
- Plasma level of LTB4 (Alox5; listed as zileuton): reduction
- Number of live K562 cells ([1]; 10-400 μM, 48 hours): reduces the number of live cells in the 200 μM and 400 μM groups
- Number of live K562 cells ([1]; 10-400 μM, 72 hours): shows an effect at all concentrations
- Leukemia cell infiltration to the lungs and the spleens [3]: less severe leukemia cell infiltration
- Differentiation of GFP- LT-HSCs in the same animals (normal HSCs; CML mice, 300 mg/kg twice a day): did not lead to blocked differentiation
- Numbers of GFP+Lin-c-Kit+Sca-1+ cells in bone marrow or spleens (normal HSCs; mice receiving MSCV-IRES-GFP-transduced wild type bone marrow, day 14 after BMT): does not result in a reduction
- Survival of mice with CML induced by BCR-ABL-T315I [4]: prolongs survival
- White blood cell counts (white blood cells): reduction of white blood cell counts less dramatically than does imatinib treatment
- Percentage of GFP+Gr-1+ myeloid leukemia cells in the peripheral blood of CML mice ([5]; Day 11): 48.3%
- Percentage of GFP+Gr-1+ myeloid leukemia cells in the peripheral blood of CML mice ([5]; Day 14): 49.9%
- Percentage of GFP+Gr-1+ myeloid leukemia cells in the peripheral blood of CML mice ([5]; Day 21): 62.9%
- Percentage of GFP+Gr-1+ myeloid leukemia cells in the peripheral blood of CML mice ([5]; Day 28): 61.4%
- Percentage of GFP+Gr-1+ myeloid leukemia cells in the peripheral blood of CML mice ([5]; Day 35): 39.7%
- Percentage of GFP+Gr-1+ myeloid leukemia cells in the peripheral blood of CML mice ([5]; Day 42): 29.4%
- Percentage of GFP+Gr-1+ myeloid leukemia cells in the peripheral blood of CML mice ([5]; Day 60): 5.1%
- GFP+Gr-1+ myeloid leukemia cells in bone marrow ([5]; bone marrow, during the treatment): drop to low levels
- GFP+Gr-1+ cells in peripheral blood over time ([5]; from 11 days to 8 weeks): gradually decrease with time
- Percentage of leukemia stem cells (CD34+CD38-) ([6]; 300 μM): 1.1%
- Percentage of leukemia stem cells (CD34+CD38-) ([6]; 600 μM): 0.9%
